Measurements: patent US20230285420A1, “USE OF C[…] THE TREATMENT OF SEIZURES ASSOCIATED WITH RARE […] SYNDROMES RELATED TO GENETIC ABNORMALITIES” (GW Research Limited, priority 2020, published 2023)
Entries after “also recorded” stand apart in the source; their conditions may differ.

Test system: seizures associated with gross chromosomal mutations
Test: Open label, expanded-access program: seizure frequency recorded in caregiver diaries versus baseline in patients on CBD plus concomitant AEDs
Type: in vivo, human
Parameters: Seizure frequency, Tonic-clonic / Seizure frequency, Atonic / Seizure frequency, Tonic / Seizure frequency, Absence / Seizure frequency, Focal without impairment / Seizure frequency, Focal with impairment: unit not given here
Method: Subjects were required to be on one or more AEDs at stable doses for a minimum of two weeks prior to baseline and to have stable vagus nerve stimulation (VNS) settings and ketogenic diet ratios for a minimum of four weeks prior to baseline.
Dose was then increased weekly by 5 mg/kg/day to a goal of to 25 mg/kg/day.
Modifications were made to concomitant AEDs as per clinical indication.
Seizure frequency, intensity, and duration were recorded by caregivers in a diary during a baseline period of at least 28 days. Changes in seizure frequency relative to baseline were calculated after at least 2 weeks and at defined timepoints of treatment.
Patients may be defined as responders if they had more than 50% reduction in seizure frequency compared to baseline. The percent change in seizure frequency was calculated as follows: […]
The percent change of seizure frequency may be calculated for any time interval where seizure number has been recorded. For the purpose of this example the percent change of seizure frequency for the end of the treatment period was calculated as follows: […]

[1] = Patient 5, 2 weeks, CBD 10.0 mg/kg/day
[2] = Patient 5, 4 weeks, CBD 15.0 mg/kg/day
[3] = Patient 5, 8 weeks, CBD 20.0 mg/kg/day
[4] = Patient 5, 12 weeks, CBD 20.0 mg/kg/day
[5] = Patient 5, 16 weeks, CBD 20.0 mg/kg/day
[6] = Patient 5, 24 weeks, CBD 20.0 mg/kg/day
[7] = Patient 5, treated for 24 weeks, vs baseline
[8] = Patient 6, 2 weeks, CBD 10.0 mg/kg/day
[9] = Patient 6, 4 weeks, CBD 20.0 mg/kg/day
[10] = Patient 6, 8 weeks, CBD 25.0 mg/kg/day
[11] = Patient 6, 12 weeks, CBD 25.0 mg/kg/day
[12] = Patient 6, 16 weeks, CBD 25.0 mg/kg/day
[13] = Patient 6, 24 weeks, CBD 25.0 mg/kg/day
[14] = Patient 7, 4 weeks, CBD 10.0 mg/kg/day
[15] = Patient 7, 12 weeks, CBD 10.0 mg/kg/day
[16] = Patient 7, 16 weeks, CBD 10.0 mg/kg/day
[17] = Patient 7, 24 weeks, CBD 10.0 mg/kg/day
[18] = Patient 7, 48 weeks, CBD 15.0 mg/kg/day
[19] = Patient 7, 60 weeks, CBD 20.0 mg/kg/day
[20] = Patient 7, 72 weeks, CBD 20.0 mg/kg/day
[21] = Patient 7, 84 weeks, CBD 25.0 mg/kg/day
[22] = Patient 7, 108 weeks, CBD 25.0 mg/kg/day
[23] = Patient 7, 120 weeks, CBD 23.6 mg/kg/day
[24] = Patient 7, 132 weeks, CBD 23.2 mg/kg/day
[25] = tonic, tonic-clonic, atonic, absence, focal without impairment, focal with secondary generalisation

SMILES: C=C(C)[C@@H]1CCC(C)=C[C@H]1c1c(O)cc(CCCCC)cc1O [CBD, cannabidiol]
- treatment time after which patient became seizure free in focal seizures without impairment (Patient 5): 16 weeks
- Seizure frequency, Absence [1]: 78.0
- Seizure frequency, Focal without impairment [1]: 0.0
- Seizure frequency, Tonic [1]: 8.0
- Seizure frequency, Absence [2]: 81.8
- Seizure frequency, Focal without impairment [2]: 47.4
- Seizure frequency, Tonic [2]: 4.3
- Seizure frequency, Absence [3]: 39.6
- Seizure frequency, Focal without impairment [3]: 2.9
- Seizure frequency, Tonic [3]: 1.9
- Seizure frequency, Absence [4]: 43.4
- Seizure frequency, Focal without impairment [4]: 1.0
- Seizure frequency, Tonic [4]: 5.1
- Seizure frequency, Absence [5]: 6.0
- Seizure frequency, Focal without impairment [5]: 0.0
- Seizure frequency, Tonic [5]: 3.0
- Seizure frequency, Absence [6]: 0.0
- Seizure frequency, Focal without impairment [6]: 0.0
- Seizure frequency, Tonic [6]: 7.0
- reduction in absence seizures over the treatment period [7]: 100%
- reduction in focal seizures without impairment over the treatment period [7]: 100%
- reduction in tonic seizures over the treatment period [7]: 50%
- Seizure frequency, Atonic [8]: 0.0
- Seizure frequency, Focal with impairment [8]: 4.0
- Seizure frequency, Focal without impairment [8]: 0.0
- Seizure frequency, Atonic [9]: 0.0
- Seizure frequency, Focal with impairment [9]: 2.0
- Seizure frequency, Focal without impairment [9]: 0.0
- Seizure frequency, Atonic [10]: 0.0
- Seizure frequency, Focal with impairment [10]: 2.0
- Seizure frequency, Focal without impairment [10]: 0.0
- Seizure frequency, Atonic [11]: 0.0
- Seizure frequency, Focal with impairment [11]: 3.0
- Seizure frequency, Focal without impairment [11]: 1.0
- Seizure frequency, Atonic [12]: 2.0
- Seizure frequency, Focal with impairment [12]: 2.0
- Seizure frequency, Focal without impairment [12]: 5.0
- Seizure frequency, Atonic [13]: 3.0
- Seizure frequency, Focal with impairment [13]: 5.0
- Seizure frequency, Focal without impairment [13]: 6.0
- reduction in seizures over the treatment period (in words) (Patient 6, treated for 24 weeks, atonic, focal without impairment, focal with impairment): did not experience a reduction in seizures
- Seizure frequency, Absence [14]: 20.0
- Seizure frequency, Tonic [14]: 372.0
- Seizure frequency, Tonic-clonic [14]: 240.0
- Seizure frequency, Absence [15]: 12.0
- Seizure frequency, Tonic [15]: 308.0
- Seizure frequency, Tonic-clonic [15]: 448.0
- Seizure frequency, Absence [16]: 12.0
- Seizure frequency, Tonic [16]: 308.0
- Seizure frequency, Tonic-clonic [16]: 448.0
- Seizure frequency, Absence [17]: 20.0
- Seizure frequency, Tonic [17]: 248.0
- Seizure frequency, Tonic-clonic [17]: 404.0
- Seizure frequency, Absence [18]: 20.0
- Seizure frequency, Tonic [18]: 216.0
- Seizure frequency, Tonic-clonic [18]: 356.0
- Seizure frequency, Absence [19]: 28.0
- Seizure frequency, Tonic [19]: 244.0
- Seizure frequency, Tonic-clonic [19]: 304.0
- Seizure frequency, Absence [20]: 28.0
- Seizure frequency, Tonic [20]: 244.0
- Seizure frequency, Tonic-clonic [20]: 304.0
- Seizure frequency, Absence [21]: 32.0
- Seizure frequency, Tonic [21]: 208.0
- Seizure frequency, Tonic-clonic [21]: 280.0
- Seizure frequency, Absence [22]: 24.0
- Seizure frequency, Tonic [22]: 184.0
- Seizure frequency, Tonic-clonic [22]: 288.0
- Seizure frequency, Absence [23]: 0.0
- Seizure frequency, Tonic [23]: 0.0
- Seizure frequency, Tonic-clonic [23]: 5.6
- Seizure frequency, Absence [24]: 0.0
- Seizure frequency, Tonic [24]: 0.0
- Seizure frequency, Tonic-clonic [24]: 2.4
- reductions in seizures over period of treatment, overall (overall, across patients): 43.6-100%
- benefit in patients with tonic-clonic seizures (in words) (patients 1, 3 and 7): significant benefit
- benefit in patients with absence seizures (in words) (patients 3, 5 and 7): significant benefit
- effect on number of seizures associated with gross chromosomal mutations (in words) (seven patients, open label expanded-access program): significantly reduce the number of seizures; also recorded: significant reduction
- decrease of seizure frequency rates, overall [25]: 44-100%
- effect on frequency of seizure types (in words) [25]: effective in reducing the frequency
